Earlier results, collected in article PMC8537988, “Re-Use of Caco-2 Monolayers in Permeability Assays—Validation Regarding Cell Monolayer Integrity” (Pharmaceutics, 2021).

Experiments:
[1] = test system: Caco-2 monolayers; design: method as in PMID 34247356; settings: day 23 post-seeding, 90 min sampling interval; cited from earlier work
[2] = test system: transporters in the membrane (influx or efflux); design: method as in PMID 9213361; settings: cited from earlier work

Lucifer yellow CH di-potassium salt [LY]
amount of LY that permeates through Caco-2 monolayers [1]: 0.27% | substrate of transporters in the membrane (influx or efflux) [2]: not a substrate of transporters in the membrane (influx or efflux)
